Here are results for four molecules from patent publication US20240351967A1, “METHODS OF PREPARATION OF ZINGERONE, COMPOSITIONS COMPRISING ZINGERONE, AND USES THEREFOR” (Evithe Limited, priority 2021, published 2024).

The subject of one data set is Staphylococcus aureus. In words: Chequerboard analysis / MIC against Staphylococcus aureus (MRSA cells). The data set is classed as cell-based. The procedure:
Chequerboard analysis was used to determine whether compounds could be combined to decrease the MIC for Staphylococcus aureus, as compared to each individual compound. In the present experiments, combinations of zingerone plus gentamicin, zingerone plus vancomycin, and zingerone plus cefotaxime were tested. For this testing, 96 well plates were inoculated Staphylococcus aureus, and then incubated with the test compounds for 24 hours at 37° C. For zingerone, additions were made at […], 12.5, and 25 mg/ml. For gentamicin, additions were made at 0, 4, 8, 16, 32, 64, 128, and 256 μg/ml. For vancomycin, additions were made at 0, 4, 8, 16, 32, 64, 128, and 256 μg/ml. For cefotaxime, additions were made at 0, 8, 16, 32, 64, 128, 256, and 512 μg/ml. MRSA cells (methicillin-resistant Staphylococcus aureus) were introduced in Mueller Hinton media with 2% NaCl. 10^8 cells per ml were utilised. The FICI index was used to quantify the interaction of the compounds interact employing the following equation: FICI=(MICA^combi/MICA^alone)+ (MICB^combi/MICB^alone). A FICI of ≤0.5 was designated as synergy, and a FICI of >4.0 was defined as antagonism. A FICI of 0.5 to 1.0 was deemed as a significant improvement although not synergistic.

Another data set relates to liver inflammation. As to conditions: peritonitis mouse model; cited from earlier work.
For data set [1] the following is noted: cited from earlier work.
Another data set deals with Pseudomonas aeruginosa. As to conditions: cited from earlier work.
For data set [2] the following is noted: EFSA 2016; 14 (8): 4557; cited from earlier work.
The mark [3] stands for this setting: individual compound, 24 hours at 37° C., MRSA in Mueller Hinton media with 2% NaCl.

Values after ≈ are worked out from the molar mass of the structure shown. Values joined by “and” are separate entries in the source; they are usually repeats but may differ in a detail not shown here. Equal values may be shown once. Read-outs that look alike come from different tables or passages of the source.

As to `CO/N=C(\C(=O)N[C@@H]1C(=O)N2C(C(=O)O)=C(COC(C)=O)CS[C@H]12)c1csc(N)n1` [Cefotaxime, reference compound], the MIC with Staphylococcus aureus (Staphylococcus aureus, individual compound, 24 hours at 37° C., MRSA in Mueller Hinton media with 2% NaCl, read-out: MIC) is more than 512 µg/mL.
Turning to `CN[C@H](CC(C)C)C(=O)N[C@H]1C(=O)N[C@@H](CC(N)=O)C(=O)N[C@H]2C(=O)N[C@H]3C(=O)N[C@H](C(=O)N[C@H](C(=O)O)c4cc(O)cc(O)c4-c4cc3ccc4O)[C@H](O)c3ccc(c(Cl)c3)Oc3cc2cc(c3O[C@@H]2O[C@H](CO)[C@@H](O)[C@H](O)[C@H]2O[C@H]2C[C@](C)(N)[C@H](O)[C@H](C)O2)Oc2ccc(cc2Cl)[C@H]1O` [Vancomycin, reference compound], the MIC with Staphylococcus aureus (Staphylococcus aureus, MRSA, 24 h) amounted to 8 µg/mL.
Take `COc1cc(CCC(C)=O)ccc1O` [Zingerone]: the “effect on liver inflammation” value with liver inflammation is recorded as “anti-inflammatory effect”. In data set [1] (FoodB compounds database), the lipophilicity (Log P) was 2.02 and 1.92. Besides, the water solubility in data set [1] (FoodB compounds database) was 570 µg/mL (≈ 2930 µM). For the same molecule, the “solubility (in words)” value in data set [1] (reported) is “sparingly soluble in water”. Also, in the data set with Pseudomonas aeruginosa, the “effect on susceptibility of cells to antibiotics” value is “enhance the susceptibility”. Also, the MIC is reported as 25 mg/g with Staphylococcus aureus (setting [3]), 25 mg/g in the data set on Staphylococcus aureus (zingerone in combination with cefotaxime), 6.25 mg/g with Staphylococcus aureus (zingerone in combination with gentamicin) and 12.5 mg/g in the data set on Staphylococcus aureus (zingerone in combination with vancomycin). The “No Observed Adverse Effects (NOAEL) dose” value in data set [2] is recorded as 128 mg/kg/day.
Regarding Gentamicin [reference compound], the MIC in the data set with Staphylococcus aureus (gentamicin in combination with zingerone) came to 4 µg/mL; in the data set with Staphylococcus aureus (setting [3]) it was 16 µg/mL.
